Experimental data: BindingDB's records for doi:10.1016/j.bmcl.2006.08.053 (Merck Research Laboratories, 2006)

Test: Release of camptothecin-induced cell cycle arrest in NCI-H1299 cells mediated by CHEK1 inhibition

| EC50 | SMILES |
| --- | --- |
| 1300 nM | Cn1nnc(-c2ccc3[nH]c(=O)c(-c4cc5cc(CN6CCCCC6)ccc5[nH]4)cc3c2)n1 [6-(2-methyl-2H-tetrazol-5-yl)-3-(5-(piperidin-1-ylmethyl)-1H-indol-2-yl)quinolin-2(1H)-one] |
| 870 nM | CC(=O)N1CCN(Cc2ccc3[nH]c(-c4cc5cc(-c6cn[nH]c6)ccc5[nH]c4=O)cc3c2)CC1 [3-(5-((4-acetylpiperazin-1-yl)methyl)-1H-indol-2-yl)-6-(1H-pyrazol-4-yl)quinolin-2(1H)-one] |
| 190 nM | O=c1[nH]c2ccc(-c3cnsc3)cc2cc1-c1cc2cc(CN3CCCCC3)ccc2[nH]1 [6-(isothiazol-4-yl)-3-(5-(piperidin-1-ylmethyl)-1H-indol-2-yl)quinolin-2(1H)-one] |
| 420 nM | CC(=O)N1CCN(Cc2ccc3[nH]c(-c4cc5cc(-c6cnn(C)c6)ccc5[nH]c4=O)cc3c2)CC1 [3-(5-((4-acetylpiperazin-1-yl)methyl)-1H-indol-2-yl)-6-(1-methyl-1H-pyrazol-4-yl)quinolin-2(1H)-one] |
| 6300 nM | O=c1[nH]c2ccc(-c3cccc(O)c3)cc2cc1-c1cc2cc(CN3CCCCC3)ccc2[nH]1 [6-(3-hydroxyphenyl)-3-(5-(piperidin-1-ylmethyl)-1H-indol-2-yl)quinolin-2(1H)-one] |
| 250 nM | O=c1[nH]c2ccc(-c3cc[nH]n3)cc2cc1-c1cc2cc(CN3CCCCC3)ccc2[nH]1 [3-(5-(piperidin-1-ylmethyl)-1H-indol-2-yl)-6-(1H-pyrazol-3-yl)quinolin-2(1H)-one] |
| 130 nM | Cn1cc(-c2ccc3[nH]c(=O)c(-c4cc5cc(CN6CCCCC6)ccc5[nH]4)cc3c2)cn1 [6-(1-methyl-1H-pyrazol-4-yl)-3-(5-(piperidin-1-ylmethyl)-1H-indol-2-yl)quinolin-2(1H)-one] |
| 880 nM | O=c1[nH]c2ccc(-n3nccn3)cc2cc1-c1cc2cc(CN3CCCCC3)ccc2[nH]1 [3-(5-(piperidin-1-ylmethyl)-1H-indol-2-yl)-6-(2H-1,2,3-triazol-2-yl)quinolin-2(1H)-one] |
| 1140 nM | COCC(=O)N1CCN(Cc2ccc3[nH]c(-c4cc5cc(-c6cn[nH]c6)ccc5[nH]c4=O)cc3c2)CC1 [3-(5-((4-(2-methoxyacetyl)piperazin-1-yl)methyl)-1H-indol-2-yl)-6-(1H-pyrazol-4-yl)quinolin-2(1H)-one] |
| 3700 nM | N#Cc1ccc2[nH]c(=O)c(-c3cc4cc(CN5CCC(CN)CC5)ccc4[nH]3)cc2c1 [3-(5-((4-(aminomethyl)piperidin-1-yl)methyl)-1H-indol-2-yl)-2-oxo-1,2-dihydroquinoline-6-carbonitrile] |
| > 10000 nM | COc1cc(-c2ccc3[nH]c(=O)c(-c4cc5cc(CN6CCCCC6)ccc5[nH]4)cc3c2)ccc1O [6-(4-hydroxy-3-methoxyphenyl)-3-(5-(piperidin-1-ylmethyl)-1H-indol-2-yl)quinolin-2(1H)-one] |
| 320 nM | O=c1[nH]c2ccc(-n3ccnc3)cc2cc1-c1cc2cc(CN3CCCCC3)ccc2[nH]1 [6-(1H-imidazol-1-yl)-3-(5-(piperidin-1-ylmethyl)-1H-indol-2-yl)quinolin-2(1H)-one] |
| 170 nM | N#Cc1ccc2[nH]c(=O)c(-c3cc4cc(CN5CCCCC5)ccc4[nH]3)cc2c1 [2-oxo-3-(5-(piperidin-1-ylmethyl)-1H-indol-2-yl)-1,2-dihydroquinoline-6-carbonitrile] |
| 460 nM | O=c1[nH]c2ccc(Br)cc2cc1-c1cc2cc(CN3CCCCC3)ccc2[nH]1 [6-bromo-3-(5-(piperidin-1-ylmethyl)-1H-indol-2-yl)quinolin-2(1H)-one] |
| 3900 nM | NCC1CCN(Cc2ccc3[nH]c(-c4cc5cc(C(N)=O)ccc5[nH]c4=O)cc3c2)CC1 [3-(5-((4-(aminomethyl)piperidin-1-yl)methyl)-1H-indol-2-yl)-2-oxo-1,2-dihydroquinoline-6-carboxamide] |
| 520 nM | NC(=O)c1ccc2[nH]c(=O)c(-c3cc4cc(CN5CCCCC5)ccc4[nH]3)cc2c1 [2-oxo-3-(5-(piperidin-1-ylmethyl)-1H-indol-2-yl)-1,2-dihydroquinoline-6-carboxamide] |
| 230 nM | O=c1[nH]c2ccc(-n3ccnn3)cc2cc1-c1cc2cc(CN3CCCCC3)ccc2[nH]1 [3-(5-(piperidin-1-ylmethyl)-1H-indol-2-yl)-6-(1H-1,2,3-triazol-1-yl)quinolin-2(1H)-one] |
| 120 nM | O=c1[nH]c2ccc(-c3cn[nH]c3)cc2cc1-c1cc2cc(CN3CCC(F)CC3)ccc2[nH]1 [3-(5-((4-fluoropiperidin-1-yl)methyl)-1H-indol-2-yl)-6-(1H-pyrazol-4-yl)quinolin-2(1H)-one] |
| 97 nM | O=c1[nH]c2ccc(-c3cn[nH]c3)cc2cc1-c1cc2cc(CN3CCCCC3)ccc2[nH]1 |
| 170 nM | O=c1[nH]c2ccc(-c3cn[nH]c3)cc2cc1-c1cc2cc(CN3CCOCC3)ccc2[nH]1 [3-(5-(morpholinomethyl)-1H-indol-2-yl)-6-(1H-pyrazol-4-yl)quinolin-2(1H)-one] |
